For 36 compounds, EC50 results are on record in patent US9850227B2 (YUHAN CORPORATION, priority 2011, dated 2017).

Counter-ions that a name gives are not always drawn.

This experiment addresses T1, human 5-HT4(a) (Homo sapiens, UniProt Q13639).
T1 construct: host or cells: GeneBIAzer HTR4-CRE-bla CHO-K1 cells
Put plainly: Evaluation of agonistic activity in CHO-K1 cells expressing human 5-HT4(a) (GeneBIAzer HTR4-CRE-bla CHO-K1 cells, beta-lactamase fluorescence ratio, EC50 from 8 concentrations). The class given is cell-based. In short, it runs like this: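 HTR4-CRE-bla CHO-K1 cells (10^4 per well, overnight in 1% FBS medium) exposed to compound for 5 h, then beta-lactamase substrate 2 h in the dark. Fluorescence ratio at 465/535 nm after 410 nm excitation; EC50 by non-linear regression over 8 concentrations.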

T1 sequence (Q13639 1-387 isoform Q13639-2): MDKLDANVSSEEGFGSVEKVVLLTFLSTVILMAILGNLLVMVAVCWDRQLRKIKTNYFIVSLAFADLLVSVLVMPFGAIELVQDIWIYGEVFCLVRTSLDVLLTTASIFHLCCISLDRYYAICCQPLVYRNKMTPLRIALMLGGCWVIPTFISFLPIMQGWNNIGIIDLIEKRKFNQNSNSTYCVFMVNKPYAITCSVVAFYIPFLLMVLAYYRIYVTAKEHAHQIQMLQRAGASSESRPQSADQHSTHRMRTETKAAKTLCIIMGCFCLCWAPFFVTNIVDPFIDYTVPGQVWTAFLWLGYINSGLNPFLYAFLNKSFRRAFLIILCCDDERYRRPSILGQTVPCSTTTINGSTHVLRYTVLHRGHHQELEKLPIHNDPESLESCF

For the compound `CCCCN[C@@H]1CCCN(c2cc(CCCC)nc(Nc3ccc(C)c(C#N)c3)n2)C1` [Example 300, (R)-5-({4-butyl-6-[3-(butylamino)piperidin-1-yl]pyrimidin-2-yl}amino)-2-methylbenzonitrile], the EC50 was 0.0097 nM. As for `CCCCc1cc(N2CCC[C@@H](NC)C2)nc(Nc2ccc(C)c(N)c2)n1` [Example 319, (R)—N^1-{4-butyl-6-[3-(methylamino)piperidin-1-yl]pyrimidin-2-yl}-4-methylbenzene-1,3-diamine], the figure is 0.0047 nM. As for `CCCCc1cc(N2CCC[C@@H](NC)C2)nc(Nc2ccc(C)c(C#N)c2)n1` [Example 311, (R)-5-({4-butyl-6-[3-(methylamino)piperidin-1-yl]pyrimidin-2-yl}amino)-2-methylbenzonitrile], the figure is 0.0026 nM; as for `CCCc1cc(N2CCC[C@H](N)C2)nc(Nc2ccc(C)c(C#N)c2)n1` [Example 150, (S)-5-[4-(3-aminopiperidin-1-yl)-6-propylpyrimidin-2-ylamino]-2-methylbenzonitrile dihydrochloride], 0.07 nM. In the case of `CCCc1cc(N2CCCCC2CC)nc(Nc2ccc(Cl)c([N+](=O)[O-])c2)n1` (stereo not drawn) [Example 101, N-(4-chloro-3-nitrophenyl)-4-(2-ethylpiperidin-1-yl)-6-propylpyrimidin-2-amine] it was 0.24 nM; in that of `CCCc1cc(N2CCC[C@H](NCC(C)C)C2)nc(Nc2ccc(C)c(C#N)c2)n1` [Example 156, (S)-5-{4-[3-(isobutylamino)piperidin-1-yl]-6-propylpyrimidin-2-ylamino}-2-methylbenzonitrile], 0.066 nM. For `CCCc1cc(N2CCC[C@H](NCc3ccc(O)cc3)C2)nc(Nc2ccc(C)c(C#N)c2)n1` [Example 164, (S)-5-{4-[3-(4-hydroxybenzylamino)piperidin-1-yl]-6-propylpyrimidin-2-ylamino}-2-methylbenzonitrile], the half-maximal effective concentration (EC50) came to 0.075 nM.

Turning to `CCCCc1cc(N2CCC[C@@H](NC)C2)nc(Nc2ccc(F)c(N)c2)n1` [Example 317, (R)—N^1-{4-butyl-6-[3-(methylamino)piperidin-1-yl]pyrimidin-2-yl}-4-fluorobenzene-1,3-diamine], the EC50 amounted to 0.0066 nM.

Regarding `CCCCc1cc(N2CCC[C@@H](N)C2)nc(Nc2ccc(N)c(C(F)(F)F)c2)n1` [Example 340, (R)—N^1-[4-(3-aminopiperidin-1-yl)-6-butylpyrimidin-2-yl]-3-(trifluoromethyl)benzene-1,4-diamine], the EC50 stood at 0.112 nM. In the case of `CCCc1cc(N2CCC[C@H](N)C2)nc(Nc2cccc([N+](=O)[O-])c2)n1` [Example 151, (S)-4-(3-aminopiperidin-1-yl)-N-(3-nitrophenyl)-6-propylpyrimidin-2-amine dihydrochloride] it was 0.361 nM; in that of `CCCCc1cc(N2CCC[C@@H](NC(C)=O)C2)nc(Nc2cc(N)cc(C(F)(F)F)c2)n1` [Example 237, (R)—N-{1-[2-(3-amino-5-trifluoromethylphenylamino)-6-butylpyrimidin-4-yl]piperidin-3-yl}acetamide], 0.014 nM. As for `CCCc1cc(N2CCC[C@@H](NCC3CC3)C2)nc(Nc2cc(N)cc(C#N)c2)n1` [Example 229, (R)-3-amino-5-{4-[3-(cyclopropylmethylamino)piperidin-1-yl]-6-propylpyrimidin-2-ylamino}benzonitrile], the EC50 stood at 0.0041 nM. As for `CCCc1cc(N2CCC[C@H](NCCC(C)C)C2)nc(Nc2ccc(C)c(C#N)c2)n1` [Example 157, (S)-5-{4-[3-(isopentylamino)piperidin-1-yl]-6-propylpyrimidin-2-ylamino}-2-methylbenzonitrile], the figure is 0.088 nM; as for `CCCc1cc(N2CCC[C@@H](NC(=O)CO)C2)nc(Nc2ccc(N)c(C(F)(F)F)c2)n1` [Example 248, (R)—N-(1-{2-[4-amino-3-(trifluoromethyl)phenylamino]-6-propylpyrimidin-4-yl}piperidin-3-yl)-2-hydroxyacetamide], 0.018 nM.

As to `CCCc1cc(N2CCCC3CCCCC32)nc(Nc2ccc3cc[nH]c3c2)n1` (stereo not drawn) [Example 73, N-[4-(octahydroquinolin-1(2H)-yl)-6-propylpyrimidin-2-yl]-1H-indol-6-amine], the EC50 was 0.24 nM.

Turning to `CCCCc1cc(N2CCC[C@@H](N)C2)nc(Nc2ccc(Cl)c([N+](=O)[O-])c2)n1` [Example 353, (R)-4-(3-aminopiperidin-1-yl)-6-butyl-N-(4-chloro-3-nitrophenyl)pyrimidin-2-amine], the EC50 was 0.337 nM. As for `CCCc1cc(N2CCC[C@@H](NCC)C2)nc(Nc2ccc(F)c(C#N)c2)n1` [Example 271, (R)-5-[4-(3-ethylaminopiperidin-1-yl)-6-propylpyrimidin-2-ylamino]-2-fluorobenzonitrile], the figure is 0.026 nM; as for `CCCCc1cc(N2CCC[C@@H](N)C2)nc(Nc2ccc(N)cc2)n1` [Example 352, (R)—N^1-[4-(3-aminopiperidin-1-yl)-6-butylpyrimidin-2-yl]benzene-1,4-diamine], 0.029 nM; as for `CCCCc1cc(N2CCC[C@@H](NC(C)=O)C2)nc(Nc2ccc(F)c(C(F)(F)F)c2)n1` [Example 239, (R)—N-{1-[6-butyl-2-(4-fluoro-3-trifluoromethylphenylamino)pyrimidin-4-yl]piperidin-3-yl}acetamide], 0.017 nM. In the case of `CCCc1cc(N2CCC[C@@H](NC(C)C)C2)nc(Nc2ccc(C)c(C#N)c2)n1` [Example 212, (R)-5-{4-[3-(isopropylamino)piperidin-1-yl]-6-propylpyrimidin-2-ylamino}-2-methylbenzonitrile] it was 0.1 nM. As for `CCCc1cc(N2CCC[C@H](NCCCSC)C2)nc(Nc2ccc(C)c(C#N)c2)n1` [Example 162, (S)-2-methyl-5-{4-[3-(3-methylthiopropylamino)piperidin-1-yl]-6-propylpyrimidin-2-ylamino}benzonitrile], the figure is 0.043 nM; as for `CCCCc1cc(N2CCCC(NC(C)=O)C2)nc(Nc2ccc(C)c(C#N)c2)n1` (stereo not drawn) [Example 298, N-{1-[6-butyl-2-(3-cyano-4-methylphenylamino)pyrimidin-4-yl]piperidin-3-yl}acetamide hydrochloride], 0.012 nM; as for `CCCCc1cc(N2CCC[C@@H](N)C2)nc(Nc2ccc(F)c(C#N)c2)n1` [Example 294, (R)-5-[4-(3-aminopiperidin-1-yl)-6-butylpyrimidin-2-ylamino]-2-fluorobenzonitrile], 0.108 nM.

On to `CCCc1cc(N2CCNC[C@H]2C)nc(Nc2ccc(N)c([N+](=O)[O-])c2)n1` [Example 128, (R)-N^1-[4-(2-methylpiperazin-1-yl)-6-propylpyrimidin-2-yl]-3-nitrobenzene-1,4-diamine], for which the EC50 was determined as 0.0049 nM. As for `CCCCc1cc(N2CCC[C@@H](NC)C2)nc(Nc2ccc(N)c([N+](=O)[O-])c2)n1` [Example 328, (R)—N^1-{4-butyl-6-[3-(methylamino)piperidin-1-yl]pyrimidin-2-yl}-3-nitrobenzene-1,4-diamine dihydrochloride], the figure is 0.0029 nM.

As to `CCCCc1cc(N2CCC[C@@H](NC)C2)nc(Nc2ccc(C)c(F)c2)n1` [Example 331, (R)-4-butyl-N-(3-fluoro-4-methylphenyl)-6-[3-(methylamino)piperidin-1-yl]pyrimidin-2-amine], the concentration for a half-maximal effect (EC50) amounted to 0.218 nM. Turning to `CCCCc1cc(N2CCC[C@@H](N)C2)nc(Nc2ccc(F)c([N+](=O)[O-])c2)n1` [Example 338, (R)-4-(3-aminopiperidin-1-yl)-6-butyl-N-(4-fluoro-3-nitrophenyl)pyrimidin-2-amine], the concentration for a half-maximal effect (EC50) is 0.014 nM. In the case of `CCCc1cc(N2CCCCC2CCO)nc(Nc2ccc(F)c([N+](=O)[O-])c2)n1` (stereo not drawn) [Example 142, 2-{1-[2-(4-fluoro-3-nitrophenylamino)-6-propylpyrimidin-4-yl]piperidin-2-yl}ethanol] it was 0.3 nM.

On to `CCCc1cc(N2CCNC[C@H]2C)nc(Nc2ccc(F)c(C#N)c2)n1` [Example 125, (R)-2-fluoro-5-[4-(2-methylpiperazin-1-yl)-6-propylpyrimidin-2-ylamino]benzonitrile], for which the EC50 amounted to 0.051 nM. In the case of `CCCc1cc(N2CCCCC2)nc(Nc2ccc(Cl)c([N+](=O)[O-])c2)n1` [Example 45, N-(4-chloro-3-nitrophenyl)-4-(piperidin-1-yl)-6-propylpyrimidin-2-amine], the EC50 was 0.27 nM. As for `CCCc1cc(N2CCC[C@@H](NC)C2)nc(Nc2cc(N)cc(C(F)(F)F)c2)n1` [Example 284, (R)—N^1-[4-(3-methylaminopiperidin-1-yl)-6-propylpyrimidin-2-yl]-5-(trifluoromethyl)benzene-1,3-diamine], the figure is 0.0032 nM.

Turning to `CCCN[C@@H]1CCCN(c2cc(CCC)nc(Nc3ccc(F)c(C#N)c3)n2)C1` [Example 225, (R)-2-fluoro-5-{4-[3-(propylamino)piperidin-1-yl]-6-propylpyrimidin-2-ylamino}benzonitrile], the EC50 turned out to be 0.021 nM. In the case of `CCCc1cc(N2CCC[C@@H](N)C2)nc(Nc2cccc(C#N)c2)n1` [Example 221, (R)-3-[4-(3-aminopiperidin-1-yl)-6-propylpyrimidin-2-ylamino]benzonitrile dihydrochloride] it was 0.122 nM. As for `CCCc1cc(N2CCC[C@H](N(CC)CC)C2)nc(Nc2ccc(C)c(C#N)c2)n1` [Example 165, (S)-5-[4-(3-diethylaminopiperidin-1-yl)-6-propylpyrimidin-2-ylamino]-2-methylbenzonitrile], the figure is 0.188 nM; as for `CCCCc1cc(N2CCC[C@@H](N)C2)nc(Nc2ccc(C)c(C#N)c2)n1` [Example 293, (R)-5-[4-(3-aminopiperidin-1-yl)-6-butylpyrimidin-2-ylamino]-2-methylbenzonitrile], 0.023 nM. As for `CCCc1cc(N2CCC[C@@H](NC(=O)CO)C2)nc(Nc2cc(N)cc(C#N)c2)n1` [Example 255, (R)—N-{1-[2-(3-amino-5-cyanophenylamino)-6-propylpyrimidin-4-yl]piperidin-3-yl}-2-hydroxyacetamide], the figure is 0.016 nM.

Usually EC50 stands for the concentration at which the effect is half-maximal.
